Measured values from patent US12234245B2, “Sulfonimidamide compounds as inhibitors of interleukin-1 activity” (Genentech, Inc., priority 2018, dated 2025).

Molecular target: NLRP3 inflammasome (Homo sapiens, UniProt Q96P20)
Test: THP-1 ASC-GFP speck assay
Assay type: cell-based
Set-up: host or cells: THP-1 ASC-GFP cells, PMA-differentiated, LPS-primed, nigericin-stimulated
Conditions: THP-1 ASC-GFP cells, PMA differentiated, LPS primed, 10 μM nigericin; read-out: THP1 ASC Speck IC50
Method: THP-1 ASC-GFP cell line was purchased from Invivogen, San Diego, for inflammasome activation assay. THP-1 ASC-GFP cells stably express a 37.6 kDa ASC::GFP fusion protein that enables monitoring of spec formation by microscopy after activation of NLRP3 dependent inflammasome pathway. Cells were maintained at a density of 600,000 cells/mL in growth media consisting of RPMI 1640, 2 mM L-glutamine, 25 mM HEPES and 10% heat inactivated fetal bovine serum at 37° C. and 5% CO2. Cells were passaged every 3-4 days and used for assays for up to 20 passages.
THP-1 ASC-GFP cells were collected by centrifuging cells at 800 RPM for 5 minutes. Cell culture supernatant was removed and cells were re-suspended in fresh media at density of 1×10^6 cells/mL in assay media consisting of RPMI 1640, 2 mM L-glutamine, 25 mM HEPES and 10% heat inactivated fetal bovine serum. Phorbol 12-myristate 13-acetate (PMA) (Invivogen, tlrl-pma) was added to the cell suspension at a final concentration of 500 ng/ml and mixed thoroughly. 40,000 cells were added per well of a 384 well plate and differentiated into macrophages overnight at 37° C. and 5% CO2. Cells were primed with 1 μg/mL of lipopolysaccharide (Invivogen Ultrapure lipopolysaccharide from E. coli, tlrl-3pelps) in assay media for 3 hours at 37° C. and 5% CO2. After priming, media was removed and THP-1 ASC-GFP cells were preincubated with serially diluted test compounds with starting concentration of 40 μM followed by 2-fold dilution for a 20-point curve or vehicle (DMSO) for 30 min in assay media at 37° C. and 5% CO2. Cells were then stimulated with 10 μM nigericin (Invivogen, tlrl-nig-5) for 90 min at 37° C. and 5% CO2 to activate NLRP3 dependent inflammasome pathway and spec formation. After stimulation, cells were fixed with 4.8% paraformaldehyde (Electron Microscopy Sciences #15710-S) and incubated at room temperature for 15 min. Cells were then washed 3-times with 100 μL of phosphate buffered saline and permeabilized in the presence of premeablization/block buffer for 20 min at room temperature. Cells were then washed 3-times with 100 μL phosphate buffered saline and incubated for 1 hr at room temperature in the presence of hoechst. After staining with Hoechst, cells were washed 3-times with 100 μL phosphate buffered saline and imaged for ASC spec formation.
THP-1 ASC-GFP cells were imaged in 488 and Hoechst channels. Hoechst channel was used for cell count and 488 channel was used to identify number of GFP ASC specks in imaged fields. Percentage of cells with a spec was calculated by dividing the number of GFP positive spots by total number of cells.

Sequence of NLRP3 inflammasome (Q96P20 whole entry): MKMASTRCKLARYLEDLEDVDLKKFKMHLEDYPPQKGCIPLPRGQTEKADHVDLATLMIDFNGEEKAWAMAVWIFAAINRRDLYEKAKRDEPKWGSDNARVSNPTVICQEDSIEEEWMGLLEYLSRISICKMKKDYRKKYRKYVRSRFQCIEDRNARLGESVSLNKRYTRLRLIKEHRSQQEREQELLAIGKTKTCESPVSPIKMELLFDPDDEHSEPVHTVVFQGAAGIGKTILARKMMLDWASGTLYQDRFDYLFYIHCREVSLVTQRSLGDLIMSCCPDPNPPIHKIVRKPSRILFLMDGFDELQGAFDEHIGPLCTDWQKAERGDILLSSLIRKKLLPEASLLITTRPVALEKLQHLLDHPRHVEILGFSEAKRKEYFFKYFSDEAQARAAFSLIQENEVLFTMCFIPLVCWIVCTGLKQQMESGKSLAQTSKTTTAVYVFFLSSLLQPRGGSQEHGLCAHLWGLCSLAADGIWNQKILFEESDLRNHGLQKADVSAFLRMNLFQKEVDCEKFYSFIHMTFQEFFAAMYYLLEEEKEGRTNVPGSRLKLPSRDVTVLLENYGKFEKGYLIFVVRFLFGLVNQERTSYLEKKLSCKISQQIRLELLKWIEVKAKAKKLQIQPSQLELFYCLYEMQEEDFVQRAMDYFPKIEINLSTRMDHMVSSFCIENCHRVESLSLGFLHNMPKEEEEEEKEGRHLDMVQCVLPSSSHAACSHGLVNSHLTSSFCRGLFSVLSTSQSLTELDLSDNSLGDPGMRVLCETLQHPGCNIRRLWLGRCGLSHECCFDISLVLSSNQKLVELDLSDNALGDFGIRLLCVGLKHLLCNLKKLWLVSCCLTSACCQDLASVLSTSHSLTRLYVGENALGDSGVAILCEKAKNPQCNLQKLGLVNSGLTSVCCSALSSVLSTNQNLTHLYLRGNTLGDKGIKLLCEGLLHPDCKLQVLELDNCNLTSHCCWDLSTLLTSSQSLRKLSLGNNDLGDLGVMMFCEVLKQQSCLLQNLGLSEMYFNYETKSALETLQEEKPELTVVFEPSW

Compound	IC50
COC1CCOc2c(S(N)(=O)=NC(=O)Nc3c4c(cc5c3CCC5)CCC4)cnn2C1 (single isomer, unassigned) [Example 88]	7700 nM
COC1CCOc2c(S(N)(=O)=NC(=O)Nc3c4c(cc5c3CCC5)CCC4)cnn2C1 (single isomer, unassigned) [Example 89]	> 20000 nM
COC1CCOc2c(S(N)(=O)=NC(=O)Nc3c4c(cc5c3CCC5)CCC4)cnn2C1 (single isomer, unassigned) [Example 90]	320 nM
COC1CCOc2c(S(N)(=O)=NC(=O)Nc3c4c(cc5c3CCC5)CCC4)cnn2C1 (single isomer, unassigned) [Example 91]	490 nM
COC1CCn2ncc(S(N)(=O)=NC(=O)Nc3c4c(cc5c3CCC5)CCC4)c2OC1 (single isomer, unassigned) [Example 92]	8200 nM
COC1CCn2ncc(S(N)(=O)=NC(=O)Nc3c4c(cc5c3CCC5)CCC4)c2OC1 (single isomer, unassigned) [Example 93]	360 nM
CC(C)c1nn(CC(F)F)c(C(C)C)c1NC(=O)N=S(N)(=O)c1cnn2c1OCCC2 (single isomer, unassigned) [Example 96]	> 20000 nM
CC(C)c1nn(CC(F)F)c(C(C)C)c1NC(=O)N=S(N)(=O)c1cnn2c1OCCC2 (single isomer, unassigned) [Example 97]	1300 nM
CCn1nc(C(C)C)c(NC(=O)N=S(N)(=O)c2cnn3c2OCCC3)c1C(C)C (single isomer, unassigned) [Example 98]	> 20000 nM
CCn1nc(C(C)C)c(NC(=O)N=S(N)(=O)c2cnn3c2OCCC3)c1C(C)C (single isomer, unassigned) [Example 99]	1700 nM
NS(=O)(=NC(=O)Nc1c2c(cc3c1CCC3)CCC2)c1cnn2c1SCCC2 (single isomer, unassigned) [Example 100]	2700 nM
NS(=O)(=NC(=O)Nc1c2c(cc3c1CCC3)CCC2)c1cnn2c1SCCC2 (single isomer, unassigned) [Example 101]	> 20000 nM
COc1cc(C(C)C)c(NC(=O)N=S(N)(=O)c2cnn3c2OCCC3)c(C(C)C)n1 (single isomer, unassigned) [Example 102]	5100 nM
COc1cc(C(C)C)c(NC(=O)N=S(N)(=O)c2cnn3c2OCCC3)c(C(C)C)n1 (single isomer, unassigned) [Example 103]	> 20000 nM
CNC1CCOc2c(S(N)(=O)=NC(=O)Nc3c4c(cc5c3CCC5)CCC4)cnn2C1 (single isomer, unassigned) [Example 105]	9900 nM
CNC1CCOc2c(S(N)(=O)=NC(=O)Nc3c4c(cc5c3CCC5)CCC4)cnn2C1 (single isomer, unassigned) [Example 106]	150 nM
CN1CCCn2ncc(S(N)(=O)=NC(=O)Nc3c4c(cc5c3CCC5)CCC4)c21 (single isomer, unassigned) [Example 107]	9000 nM
CN1CCCn2ncc(S(N)(=O)=NC(=O)Nc3c4c(cc5c3CCC5)CCC4)c21 (single isomer, unassigned) [Example 108]	> 20000 nM
CNC1CCOc2c(S(N)(=O)=NC(=O)Nc3c4c(cc5c3CCC5)CCC4)cnn2C1 (single isomer, unassigned) [Example 109]	5700 nM
CNC1CCOc2c(S(N)(=O)=NC(=O)Nc3c4c(cc5c3CCC5)CCC4)cnn2C1 (single isomer, unassigned) [Example 110]	120 nM
CN(C)[C@@H]1COc2c([S@](=O)(=NC(=O)Nc3c4c(c(F)c5c3CCC5)CCC4)NC#N)cnn2C1 (single isomer, unassigned) [Example 111]	100 nM
CO[C@H]1CCOc2c([S@@](=O)(=NC(=O)Nc3c4c(cc5c3CCC5)CCC4)NC#N)cnn2C1 (single isomer, unassigned) [Example 112]	610 nM
CC(C)c1nn(CC2CC2)c(C(C)C)c1NC(=O)N=S(N)(=O)c1cnn2c1OCCC2 (single isomer, unassigned) [Example 113]	> 20000 nM
CC(C)c1nn(CC2CC2)c(C(C)C)c1NC(=O)N=S(N)(=O)c1cnn2c1OCCC2 (single isomer, unassigned) [Example 114]	4400 nM

Compound	IC50
COC1COc2c(S(=O)(=NC(=O)Nc3c4c(cc5c3CCC5)CCC4)NC(C)=O)cnn2C1 (single isomer, unassigned) [Example 115]	2500 nM
COC1COc2c(S(=O)(=NC(=O)Nc3c4c(cc5c3CCC5)CCC4)NC(C)=O)cnn2C1 (single isomer, unassigned) [Example 116]	2100 nM
NS(=O)(=NC(=O)Nc1c2c(cc3c1CCC3)CCC2)c1cnn2c1CCOCC2 (single isomer, unassigned) [Example 117]	4300 nM
NS(=O)(=NC(=O)Nc1c2c(cc3c1CCC3)CCC2)c1cnn2c1CCOCC2 (single isomer, unassigned) [Example 118]	> 20000 nM
COc1cc(-c2cc(F)cc(C(C)C)c2NC(=O)N=S(N)(=O)c2cnn3c2OCCC3)ccn1 (single isomer, unassigned) [Example 119]	58 nM
COc1cc(-c2cc(F)cc(C(C)C)c2NC(=O)N=S(N)(=O)c2cnn3c2OCCC3)ccn1 (single isomer, unassigned) [Example 120]	1200 nM
CO[C@@H]1CCOc2c([S@](=O)(=NC(=O)Nc3c4c(cc5c3CCC5)CCC4)NC#N)cnn2C1 (single isomer, unassigned) [Example 121]	2700 nM
CO[C@@H]1CCOc2c([S@@](=O)(=NC(=O)Nc3c4c(cc5c3CCC5)CCC4)NC#N)cnn2C1 (single isomer, unassigned) [Example 122]	800 nM
CO[C@H]1CCOc2c([S@](=O)(=NC(=O)Nc3c4c(cc5c3CCC5)CCC4)NC#N)cnn2C1 (single isomer, unassigned) [Example 123]	120 nM
NS(=O)(=NC(=O)Nc1c2c(cc3c1CCC3)CCC2)c1cnn2c1OCC2 (single isomer, unassigned) [Example 124]	54 nM
NS(=O)(=NC(=O)Nc1c2c(cc3c1CCC3)CCC2)c1cnn2c1OCC2 (single isomer, unassigned) [Example 125]	1700 nM
CC1CCc2cc3c(c(NC(=O)N=S(N)(=O)c4cnn5c4OCCC5)c21)CCC3 (single isomer, unassigned) [Example 126]	> 20000 nM
CC1CCc2cc3c(c(NC(=O)N=S(N)(=O)c4cnn5c4OCCC5)c21)CCC3 (single isomer, unassigned) [Example 127]	3300 nM
CC1CCc2cc3c(c(NC(=O)N=S(N)(=O)c4cnn5c4OCCC5)c21)CCC3 (single isomer, unassigned) [Example 128]	1700 nM
CC1CCc2cc3c(c(NC(=O)N=S(N)(=O)c4cnn5c4OCCC5)c21)CCC3 (single isomer, unassigned) [Example 129]	19 nM
CNC1CCn2ncc(S(N)(=O)=NC(=O)Nc3c4c(cc5c3CCC5)CCC4)c2OC1 (single isomer, unassigned) [Example 130]	14000 nM
CNC1CCn2ncc(S(N)(=O)=NC(=O)Nc3c4c(cc5c3CCC5)CCC4)c2OC1 (single isomer, unassigned) [Example 131]	920 nM
CNC1CCn2ncc(S(N)(=O)=NC(=O)Nc3c4c(cc5c3CCC5)CCC4)c2OC1 (single isomer, unassigned) [Example 132]	1200 nM
NS(=O)(=NC(=O)Nc1c2c(cc3c1CCC3)CCC2)c1cnn2c1C(F)(F)CCC2 (single isomer, unassigned) [Example 133]	2800 nM
NS(=O)(=NC(=O)Nc1c2c(cc3c1CCC3)CCC2)c1cnn2c1C(F)(F)CCC2 (single isomer, unassigned) [Example 134]	> 20000 nM
CC1CCc2cc3c(c(NC(=O)N=S(N)(=O)c4cnn5c4OCC(C)(C)C5)c21)CCC3 (single isomer, unassigned) [Example 135]	> 20000 nM
CC1CCc2cc3c(c(NC(=O)N=S(N)(=O)c4cnn5c4OCC(C)(C)C5)c21)CCC3 (single isomer, unassigned) [Example 136]	3800 nM
CC1CCc2cc3c(c(NC(=O)N=S(N)(=O)c4cnn5c4OCC(C)(C)C5)c21)CCC3 (single isomer, unassigned) [Example 137]	28 nM
CC1CCc2cc3c(c(NC(=O)N=S(N)(=O)c4cnn5c4OCC(C)(C)C5)c21)CCC3 (single isomer, unassigned) [Example 138]	790 nM
